# Results from US9555086B2, “Compositions and methods for inducing an immune response” (The Regents of the University of Michigan, priority 2010, dated 2017).
# Entries after “also recorded” stand apart in the source; their conditions may differ.
# How the values were obtained:
# [1] = tested on: CD8+ and CD8− DC; assay: Cytokine production by splenic DC subsets (Luminex); assay type: cell-based, mouse
# Procedure: Splenic CD8+ and CD8− DC were isolated from DBA/1 mice as above and cultured in 96-well plates over time in the presence or absence of ISL-positive (65-79*0401) or ISL-negative (65-79*0402) peptides (50 μg/ml). At various time points thereafter, supernatants were collected and assayed for cytokine content, using the Luminex platform.
# DBA/1 splenic unfractionated CD11c+ DCs (CD11c+), or their purified CD11c+CD8+ DCs (CD8+) or CD11c+CD8− DCs (CD8−) subsets were cultured with the ISL 65-79*0401 or ISL-negative control 65-79*0402 or medium. Supernatants were collected at different time points and assayed for cytokine content using a Luminex platform.
# (§1) To determine the rate of NO production, cells were loaded with 20 μM of the fluorescent NO probe 4,5-diaminofluorescein diacetate (DAF-2DA) and the fluorescence level was recorded every 5 minutes over a period of 500 minutes using a Fusion αHT system (PerkinElmer Life Sciences) at an excitation wavelength of 488 nm and emission wavelength of 515 nm. To determine IDO enzymatic activity, the generation of its product, kynurenine was measured (Takikawa et al. 1988. J Biol Chem 263:2041-2048.; herein incorporated by reference in its entirety). Cytokine concentrations were measured in cell culture supernatants using a Luminex platform (Millipore Corporation, Danvers, Mass.). In some experiments, cytokines were determined using ELISA (Quantikine®, R&D Systems, Minneapolis, Minn.) following the manufacture's instruction.
# [2] = tested on: CD11c+DCs; assay: IL-23 and IL-6 production in LPS-stimulated bone marrow-derived CD11c+DCs (ELISA); assay type: cell-based, mouse; settings: LPS-treated DCs (100 ng/ml LPS)
# Procedure: DBA/1 bone marrow-derived CD11c+DCs were cultured with or without 100 ng/ml LPS in the presence or absence of ISL-positive or ISL-negative 15mer peptides (50 μg/ml). Supernatants were collected at different time points and assayed for IL-23 and IL-6 content by ELISA.
# as §1
# [3] = tested on: CD4+IL17A+ T cells; assay: Th17 differentiation and IL-17 production in DC/CD4+ T cell co-culture; assay type: cell-based, mouse; settings: peptide-stimulated DCs; naïve T cells, Th17-polarizing cocktail, 6 days
# Procedure: DBA/1 bone marrow-derived CD11c+DCs were cultured overnight in the presence or absence of (A) ISL 65-79*0401 or ISL-negative control 65-79*0402, or (B) ISL-positive T-DRB1*0401 tetramers, versus ISL-negative T-DRB1*0301, or T-DRB1*1501 tetramers. Syngeneic splenic CD4+CD25−CD62L+CD44− naïve T cells plus a Th17-differentiation cytokine/antibody cocktail were then added to the culture and incubated for 6 days. Intracellular IL17A was determined by flow cytometry. On the left: a representative experiment, one of three repetitions, showing percentages of CD4+IL17A+ cells as dot plots. On the right: bar graphs show results presented as mean percentage±SD of replicate samples.
# (A) DBA/1 bone marrow-derived CD11c+ DCs were cultured overnight with different peptidic ligands as above. Syngeneic splenic CD4+ T cells plus a Th17-polarizing cocktail were added to the culture and incubated for 6 days. IL-17A-positive cells were quantified by flow cytometry. On the left: dot plots showing percentage of CD4+IL17A+ T cells. […]
# After 6 days, cells were stimulated with PMA (5 ng/ml) and ionomycin (500 ng/ml) for the last 6 hrs of culture. […] Mean florescence intensity and percentages of stained cells were determined by flow cytometry.
# [4] = tested on: Th17 cells; assay: Expansion of pathogen-specific Th17 cells in immunized CII-TCR Tg mice; assay type: in vivo
# [5] = tested on: Human fibroblast M1 cells; settings: previously determined; cited from earlier work
substance,measurement,setting,value
H-KDLLEQKRAAVDTYC-NH2 [65-79*0401],IL-6 / cytokine production,"[1]; CD11c+CD8+ DCs, 50 μg/ml peptide",no production of any cytokines; also recorded: not in the CD11c+CD8+ subset
same,time point of IL-6 peak,[1]; CD11c+CD8− DCs,24 h
same,IL-6 production,"[1]; CD11c+CD8− DCs, 50 μg/ml peptide",robust production
same,"production of other cytokines (IL-4, IL-10, IL-12, IL-1β, TGFβ)",[1]; splenic DCs,did not show any increased production
same,IL-23 production,[2],augmented
same,differentiation of CD4+IL17A+ T cells,[3],significant increase
same,total antigen non-stimulated Th17 cells in draining lymph nodes,"[4]; 100 μg i.p. days 0, 7, 14, 21, day 42",significant increase
same,percentage of Th17 cells after 6 days in culture,[4]; lymph node cells re-stimulated with bacterial antigen PPD,13.1±0.5%
same,percentage of Th17 cells after 6 days in culture,[4]; lymph node cells stimulated with CII,8.4±0.5%
same,percentage of Th17 cells after 6 days in culture,"[4]; lymph node cells, without any antigen stimulation",5.4±0.4%
same,optimal concentration for NO production,[5],50 µM
